Experiments:
Type in all cases: functional, cell-based
HCT-15 = test: In vitro cytotoxic activity against human colon cancer cell line HCT15 after 72 hr of drug exposure determined by the SRB assay; conditions: HCT-15, 72 h
SK-OV-3 = test: In vitro cytotoxic activity against human ovarian carcinoma cell line SK-OV-3 after 72 hr of drug exposure determined by the SRB assay; conditions: SK-OV-3, 72 h
T47D = test: In vitro cytotoxic activity against human breast cancer cell line T-47D after 72 hr of drug exposure determined by the SRB assay
MDA-MB-468 = test: In vitro cytotoxic activity against human breast cancer cell line MD-MB-468 after 72 hr of drug exposure determined by the SRB assay; conditions: MDA-MB-468, 72 h

SMILES	IC50 (HCT-15) [nM]	IC50 (SK-OV-3) [nM]	IC50 (T47D) [nM]	IC50 (MDA-MB-468) [nM]
Cc1ccc2c(c1)C(=O)c1nccnc1C2=O	120	2200	1200	1500
O=C1c2ccc(CBr)cc2C(=O)c2nccnc21	400	1600	500	300
CN(C)Cc1ccc2c(c1)C(=O)c1nccnc1C2=O	100	220	100	100
O=C1c2ccc(CN3CCCC3)cc2C(=O)c2nccnc21	100	250	100	100
O=C1c2ccc(CN3CCOCC3)cc2C(=O)c2nccnc21	1300	7000	1300	3200
O=C1c2ccc(CN3CCCCC3)cc2C(=O)c2nccnc21	50	400	80	200
CN1CCN(Cc2ccc3c(c2)C(=O)c2nccnc2C3=O)CC1	1200	10000	3000	3000
O=C1c2ccc(CN(CCO)CCO)cc2C(=O)c2nccnc21	180	1200	900	900
COc1cccc2c1C(=O)c1c(O)c3c(c(O)c1C2=O)C[C@@](O)(C(=O)CO)C[C@@H]3O[C@H]1C[C@H](N)[C@H](O)[C@H](C)O1 [DOXORUBICIN]	25		7	7
CO[C@@]12[C@H](COC(N)=O)C3=C(C(=O)C(C)=C(N)C3=O)N1C[C@@H]1N[C@@H]12 [MITOMYCIN]	70	180	400	270

Source: ChEMBL document CHEMBL1137951, “Synthesis and in vitro evaluation of 7-dialkylaminomethylbenzo[g]quinoxaline-5,10-diones” (Bioorg Med Chem Lett, 2004)
